What was measured:
[1] = system: glycosaminoglycan (GAG) synthesis; experiment: Subcutaneous stainless steel chamber implant model: glycosaminoglycan (GAG) content measured as uronic acid (UA); assay type: in vivo, rat
Description: (§1) The subcutaneous implantation of stainless steel chambers in rats provides a model for studying the synthesis of extracellular matrix components (collagen and glycosaminoglycan) by providing a recoverable site of new matrix synthesis. The assay involves implanting in each rat, two cylindrical stainless steel chambers (1 cm in diameter×2.5 cm long, 312 SS, 20 mesh, with Teflon end caps), one on each side of the rats' dorsal midline. After allowing for encapsulation of the chambers, both chambers on each rat were injected with 0.2 ml of a solution containing the representative soft tissue filler or saline on day 4 after implantation, and the test peptide copper compound (or saline alone as a control) on days 6, 8, 11, 13, 15, 16, and 18. Chambers were removed from the animals on day 30 after implantation for biochemical analysis.
The chambers were also analyzed for glycosaminoglycan content, another component of the extracellular matrix or skin. Glycosaminoglycan (“GAG”) content was determined by quantifying the amount of uronic acid (“UA”), a carbohydrate component specific for GAGs. UA was determined by a colorimetric assay, as described using 2-hydroxydiphenyl as a reagent (see, e.g., Vilim, V., “Colorimetric Estimation of Uronic Acids using 2-hydroxydiphenyl as a Reagent,” Biomed. Biochim. Acta. 44 11/12 s: 1717-1720, 1985). GAG content was expressed as μg of UA per chamber.
(§2) In this example, hydroxypropyl methyl cellulose was used as the soft tissue filler. A dose of 6 milligrams of the hydroxypropyl methyl cellulose, as a gel, was injected into each of the chambers. Injections of saline served as controls.
(§3) Glycyl-L-histidyl-L-lysine:copper(II) (“GHK-Cu”), was used as the peptide copper complex used. The GHK-Cu was prepared at a molar ratio of 2 moles of peptide to one mole of copper(II), and dissolved in a saline solution at a concentration of 10 milligrams/milliliter. A dose of […] of GHK-Cu was injected for each day of treatment.
(§4) The stimulation of collagen and GAG synthesis by injection of various peptide copper complexes has been determined by methods described in Example 1. The peptide copper complexes used were L-alanyl-L-histidyl-L-lysine:copper(II) (“AHK-Cu”), prepared at a molar ratio of 1 mole of peptide to one mole of copper(II), and glycyl-L-histidyl-L-lysyl-L-valyl-L-phenylalanyl-L-valine:copper(II) (“GHKVFV-Cu”), prepared at a molar ratio of 2 moles of peptide to one mole of copper(II). The peptide copper complexes were dissolved in a saline solution at a concentration of 10 milligrams/milliliter. A dose of 2.4 micromoles of peptide copper complex was injected on each treatment day.

collagen synthesis = experiment: Subcutaneous stainless steel chamber implant model: collagen content measured as hydroxyproline (HYP); assay type: in vivo, rat
Description: as §1
The chambers were lyophylized and the interior contents removed for biochemical analysis. The biochemical parameters examined include collagen content, the latter being measured as a hydroxyproline (“HYP”) content. The latter, an amino acid specific for collagen, was measured after acid hydrolysis and using a colormetric assay for HYP (see e.g., Bergman, I and Loxley, R., “The Determination of Hydroxyproline in Urine Hydrolysates,” Clin. Chim. Acta. 27: 347-349, 1970). Collagen content was expressed as μg of HYP per chamber or per milligram of protein.
as §2, §3, §4
The stimulation of collagen synthesis by injection of various peptide copper complexes has been determined by methods described in Examples 1 and 2. […]

[2] = Example 2, 2.4 micromoles of peptide copper complex per treatment day, saline control 60 ± 5
[3] = Example 3, 0.6 mg of peptide copper complex per treatment day, saline control 1838 ± 636

Substance	μg Uronic Acid/Chamber Mean ± SEM [1, 2]	μg HYP/Chamber Mean ± SEM (collagen synthesis; [3])	other results
Glycyl-L-histidyl-L-lysine:copper(II) [GHK-Cu]	–	–	μg Uronic Acid/Chamber Mean ± SEM ([1]; Example 1, GHK-Cu 0.2 mg per treatment day in combination with soft tissue filler HPMC 6 mg on day 4, chambers removed day 30, saline control 46.3 ± 5.8): 88.1 ± 5.6 μg Uronic Acid/Chamber; μg Uronic Acid/Chamber Mean ± SEM ([1]; Example 1, agent alone (GHK-Cu 0.2 mg per treatment day on days 6-18, or HPMC gel 6 mg on day 4), chambers removed day 30, saline control 46.3 ± 5.8): 117.3 ± 12.9 μg Uronic Acid/Chamber; μg HYP/Chamber Mean ± SEM (collagen synthesis; Example 1, GHK-Cu 0.2 mg per treatment day in combination with soft tissue filler HPMC 6 mg on day 4, chambers removed day 30, saline control 1222 ± 111): 3423 ± 341 μg HYP/Chamber; μg HYP/Chamber Mean ± SEM (collagen synthesis; Example 1, agent alone (GHK-Cu 0.2 mg per treatment day on days 6-18, or HPMC gel 6 mg on day 4), chambers removed day 30, saline control 1222 ± 111): 4226 ± 265 μg HYP/Chamber
L-alanyl-L-histidyl-L-lysine:copper(II) [AHK-Cu]	105 ± 21 μg Uronic Acid/Chamber	–	–
glycyl-L-histidyl-L-leucine methyl ester:copper(II) [GHL-Me-Cu]	–	3357 ± 863 μg HYP/Chamber	–
glycyl-L-histidyl-L-leucine:copper(II) [GHL-Cu]	–	3619 ± 754 μg HYP/Chamber	–
glycyl-L-histidyl-L-lysyl-L-valyl-L-phenylalanyl-L-valine:copper(II) [GHKVFV-Cu]	79 ± 9 μg Uronic Acid/Chamber	–	–

Source: patent publication US20070110693A1, “COMPOSITIONS CONTAINING PEPTIDE COPPER COMPLEXES AND SOFT TISSUE FILLERS, AND METHODS RELATED THERETO” (PROCYTE CORPORATION, priority 2002, published 2007)
